We go through 22 compounds from patent US12251370B2, “Small molecule inhibitors of the BfrB:Bfd interaction” (BOARD OF SUPERVISORS OF LOUISIANA STATE UNIVERSITY AND …, priority 2018, dated 2025).

In experiment [1] the test system is P. aeruginosa. As to the kind of experiment: Growth curves and IC50 determination in P. aeruginosa. The settings on record: M63 media, growth % from OD600 at 13 h, three independent experiments. It counts as cell-based, Pseudomonas aeruginosa (PAO1). The protocol:
(§1) Pre-cultures (5 mL LB media) were grown for 12 h at 37° C. and 220 rpm in 50 mL conical tubes (VWR International, PA) covered with an air permeable membrane. The cells were then centrifuged at 4,000 rpm for 10 min, the resultant cell pellets washed twice in M63 media and then diluted in M63 media to OD600=0.01. Stock solutions (100 mM) of analog in DMSO were prepared weekly and stored at 4° C. Prior to initiating experiments in 96 well plates, the analog stock solution was serially diluted to make 10 mM or 1 mM working solutions in DMSO. A small volume of the appropriate working solution was transferred to a glass vial, diluted with DMSO to 30 μL, and then diluted to a final volume of 1.5 mL with pre-culture cell suspension with an OD600=0.01. The resultant cell suspension (200 μL) was transferred to a clear-bottom polystyrene 96 well plate (VWR), and incubated at 35° C. and 205 cpm for 13 h in an Epoch 2 microplate spectrophotometer (Biotek Instruments, Inc., Vermont). The growth curve in the presence of Ciprofloxacin was obtained in the same plate. […] MIC determinations were carried out using standard broth microdilution methods in 48 well plates and modified M63 media. Cells were incubated at 35° C.

Experiment [2] relates to P. aeruginosa. The settings on record: literature value; cited from earlier work.
The next experiment deals with BfrB (Pseudomonas aeruginosa, UniProt Q9HY79). As to the kind of experiment: STD NMR fragment screening with Bfd competitive displacement. To be noted: STD NMR with Bfd as specific competitor. In kind it is binding. From the text: Fragment Library Screening Using Saturation Transfer Difference (STD) NMR Spectroscopy
Structural information obtained from the BfrB-Bfd complex was used to design a fragment library to screen for molecules that bind BfrB at the Bfd-binding site. […] In addition, fragments capable of π-π stacking were included with both electron rich and deficient aromatic rings. To screen the library in search of fragments that bind BfrB at the Bfd-binding site a competition assay was developed that utilizes saturation transfer difference (STD) NMR spectroscopy. This technique is ideally suited to screen fragments that bind to the large BfrB (˜440 kDa) because protein resonance assignments are not necessary and very low protein concentrations are required. In addition, the large rotational correlation time (τc) of BfrB enhances spin diffusion and therefore saturation transfer within the protein and to the ligand.^51 Two solutions were prepared for each fragment: a solution of the fragment alone, and a solution of the fragment and BfrB. Three spectra were obtained for each fragment. The ^1H spectrum of the fragment alone was used to determine fragment integrity and solubility, the ^1H spectrum of the fragment in the presence of BfrB was used to corroborate that fragment integrity and solubility is not affected by BfrB, and the STD spectrum of the solution containing the fragment and BfrB was used to assess fragment binding. This strategy uncovered 18 compounds that bind BfrB. The specificity criterion for fragment binders, however, is that these bind BfrB specifically at the Bfd-binding site. To eliminate non-specific binders, a displacement strategy was implemented that utilizes Bfd as a specific competitor. For this purpose, a STD spectrum was acquired from a solution containing fragment, BfrB and Bfd. […] These fragments were advanced to the next stage, which was focused on uncovering structural information of fragment binding.

The test system of experiment [3] is ΔbfrB P. aeruginosa cells. As to the kind of experiment: Growth response of bfrB deletion mutant cells to analog. In kind it is cell-based, Pseudomonas aeruginosa. To be noted: M63 + 4 μM Fe; 15 h post-inoculation; viable cells vs untreated control. On the procedure:
(§2) To this end, wild type and ΔbfrB cells were cultured in M63 media supplemented with 4 μM Fe, in the presence of different concentrations of analog. […] Since BfrB is not essential, it is likely that the cell can compensate for the absence of the iron storage protein. […] The sudden onset of toxicity observed in the second phase, which is not observed with the wild type cells, is probably related to off-target effects that expose a fitness vulnerability caused by the absence of BfrB. Consequently, it is possible to conclude that the dose-dependent growth defect elicited by 11 or 16 on wild type P. aeruginosa cells is largely a consequence of the interaction between the small molecule inhibitors and BfrB in the bacterial cell. This issue was investigated in additional detail (see below) by probing the phenotypic and biochemical response of wild type cells treated with the small molecule inhibitors.

Experiment [4] has as its system wild type P. aeruginosa cells. As to the kind of experiment: Growth response of wild type cells to analog (viable cell count). In kind it is cell-based, Pseudomonas aeruginosa. To be noted: M63 + 4 μM Fe; 15 h post-inoculation; viable cells vs untreated control. On the procedure:
as §2

Another experiment has as its system P. aeruginosa PAO1. As to the kind of experiment: Effect of analogs on the potency of fluoroquinolone antibiotics, strain PAO1. The settings on record: data not shown. It counts as cell-based, Pseudomonas aeruginosa. The protocol:
The combined treatment was carried out similarly, ensuring that the final concentration of DMSO was 2%.

Experiment [5] relates to A. baumannii. As to the kind of experiment: MIC determination by broth microdilution in A. baumannii. It counts as cell-based, Acinetobacter baumannii (AB5075). To be noted: modified M63 media, 35° C.; for MIC: Acinetobacter baumannii. The protocol:
as §1, with “M63” left out, “A small volume of the appropriate working solution was transferred to a glass vial, diluted with DMSO to 30 μL, and then diluted to a final volume of 1.5 mL with pre-culture cell suspension with an OD600=0.01.” left out
A general note: Broth dilution looks for growth in wells or tubes with falling amounts of substance.

For a further experiment, the target named is apo-BfrB (Pseudomonas aeruginosa, UniProt Q9HY79). As to the kind of experiment: Fluorescence polarization binding assay, apo-BfrB titrated into fluorescent ligand. The settings on record: fluorescence polarization and intensity near emission λmax. The protocol:
Prior to testing the effect that the 4-substituted isoindoline-1,3-dione derivatives might exert on P. aeruginosa cells, the strength of their interaction with BfrB was evaluated in vitro with a fluorescence polarization assay developed based on the intrinsic fluorescence of the isoindoline-1,3-dione moiety.
In general terms: Fluorescence polarisation rises when a labelled molecule tumbles more slowly, as on binding a larger partner.

The test system of experiment [6] is A. baumannii. As to the kind of experiment: Growth curves and IC50 determination in A. baumannii. In kind it is cell-based, Acinetobacter baumannii (AB5075). To be noted: AB5075, modified M63 media, 48 well-plates. The protocol: as §1
This idea was tested with A. baumanni AB5075, a highly virulent isolate, which has been proposed as a model strain for the evaluation of pathogenesis and antimicrobial treatments.^66.

In another experiment the test system is A. baumannii cells. As to the kind of experiment: CAS assay for siderophore detection. It counts as cell-based, Acinetobacter baumannii. To be noted: analog 64 μM; modified M63 media; 35° C. On the procedure:
These experiments were carried out in 48 well-plates in a Synergy H1 microplate spectrophotometer as described above for obtaining A. baumannii growth curves. Cultures treated with analog KM-5-25 at 64 μM final concentration were used in these experiments. The cell-free supernatants (25 μL) collected after the 24-h growth curves had been completed was mixed with 175 μL of the CAS assay reagent (10 mM hexadecyltrimethyl ammonium bromide (HDTMA), 1 mM FeCl3·6H2O, 2 mM azurol S-CAS in 145 mM PIPES buffer, pH 5.9).^64 The absorbance at 630 nm was read in an Epoch2 microplate spectrophotometer after 2 h and used to calculate the percent siderophore (PSU) with the aid of equation 3,^65 where Ar is the absorbance of the reference solution (CAS solution and un-inoculated media) and As is the absorbance of the sample (CAS solution and cell-free supernatant). PSU values were normalized to CFU/mL.
The results are illustrated in FIGS. 8A and 8B with observations made when A. baumannii cells are cultured at 35° C. in modified M63 media treated with analogs KM-5-25 and KM-5-35.

Values after ≈ are worked out from the molar mass of the structure shown.

Chain of BfrB (Q9HY79 whole entry, the tested form may be a part): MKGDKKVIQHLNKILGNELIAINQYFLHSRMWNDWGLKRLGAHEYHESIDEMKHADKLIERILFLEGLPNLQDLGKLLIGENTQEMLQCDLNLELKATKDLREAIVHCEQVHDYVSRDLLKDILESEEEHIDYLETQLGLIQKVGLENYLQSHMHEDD
Chain of apo-BfrB (Q9HY79 whole entry): as the sequence (Q9HY79 whole entry, the tested form may be a part) above

As to `Nc1cccc2c1C(=O)NC2=O` [Analog 8, reference compound], the “P. aeruginosa IC50” value in the experiment with P. aeruginosa [1] is recorded as “Not active”.
On to `O=C(O)c1cn(C2CC2)c2cc(N3CCNCC3)c(F)cc2c1=O` [ciprofloxacin], for which, in the experiment with P. aeruginosa [2], the “reported MIC” value was 0.25 µg/mL.
For the compound `CC(=O)c1ccc2c(c1)NC(=O)CO2` [6-acetyl-2H-benzo[b][1,4]oxazin-3(4H)-one], the “fragment binding to BfrB, STD signal displaced by Bfd” value (from here on “fragment binding to BfrB”) at BfrB was “bind at the Bfd-binding site”.
As a reminder, the IC50 is the concentration at which inhibition is half-maximal. A lower IC50 goes with greater potency in that assay. Take `O=C1NC(=O)c2c(NCc3ccccc3O)cccc21` [Analog 11, 4-((2-Hydroxybenzyl)amino)isoindoline-1,3-dione]: 258 µM corresponded to half-maximal inhibition in the experiment with P. aeruginosa [1] (Pseudomonas aeruginosa) (IC50). Also, in experiment [3], the “growth response of ΔbfrB mutant cells” value is listed as “biphasic growth response”. The “growth response of wild type cells” value in [4] is recorded as “monophasic dose-dependent growth defect”.
Turning to `CC(=O)Nc1ccc(Br)cc1` [N-(4-bromophenyl)acetamide], the “fragment binding to BfrB” value on BfrB was “bind at the Bfd-binding site”.
As for `O=C1NC(=O)c2c(NCc3cccc(O)c3)cccc21` [Analog 12, 4-((3-Hydroxybenzyl)amino)isoindoline-1,3-dione], the “P. aeruginosa IC50” value with P. aeruginosa [1] is on record as “Not active”.
For the compound `Brc1cccc(-c2nnn[nH]2)c1` [5-(3-bromophenyl)-1H-tetrazole], the “fragment binding to BfrB” value at BfrB was “bind at the Bfd-binding site”.
Take gentamycin [reference compound]: the “enhancement of antibacterial activity in combination with the small molecule inhibitors of the BfrB-Bfd interaction” value in the experiment with P. aeruginosa PAO1 was “no enhancement”.
For the compound `O=C1NC(=O)c2cc(O)ccc21` [5-hydroxyisoindoline-1,3-dione], the “fragment binding to BfrB” value at BfrB is reported as “bind at the Bfd-binding site”.
Broadly, the MIC is the lowest concentration that inhibits growth of the organism. In the experiment with P. aeruginosa [1] (Pseudomonas aeruginosa), `O=C1NC(=O)c2c(NCCCc3cc(F)ccc3O)cccc21` [JAG-005-006, 4-((3-(5-Fluoro-2-hydroxyphenyl)propyl)amino)isoindoline-1,3-dione] came in with an IC50 of 48 µM. Besides, the MIC in the experiment with A. baumannii [5] worked out at 128 µM (≈ 40.2 µg/mL).
For orientation: Kd means the constant that tells how readily two partners part at equilibrium. At apo-BfrB, `O=C1NC(=O)c2c(NCc3cc(Br)ccc3O)cccc21` [KM-5-35, 4-((5-Bromo-2-hydroxybenzyl)amino)isoindoline-1,3-dione] came in with a Kd of 2 ± 1.4 µM. Also, the values for the IC50 with P. aeruginosa [1] (Pseudomonas aeruginosa) and in the experiment with A. baumannii [6] (Acinetobacter baumannii) were 48 µM and 64 µM, respectively. For the same compound, in the experiment with A. baumannii [5], the MIC was in the range of 80 to 128 µM (≈ 27.8 to 44.4 µg/mL). The “siderophores produced relative to untreated control, normalized to CFU/mL” value with A. baumannii cells is listed as “approximately 2 fold”.
For `O=C1NC(=O)c2c(NCCCc3ccc(O)cc3O)cccc21` [Analog 14], the IC50 in the experiment on P. aeruginosa [1] (Pseudomonas aeruginosa) was determined as 143 µM.
In turn, `O=C1NC(=O)c2c(NCc3cc(Cl)ccc3O)cccc21` [KM-5-25, 4-((5-Chloro-2-hydroxybenzyl)amino)isoindoline-1,3-dione] returned a Kd at apo-BfrB of 2.9 ± 1.9 µM. Also, the IC50 in the experiment with P. aeruginosa [1] (Pseudomonas aeruginosa) and in the experiment with A. baumannii [6] (Acinetobacter baumannii) was 64 µM in each case. The same compound had an MIC with A. baumannii [5] of 128 µM (≈ 38.7 µg/mL). In addition, the “siderophores produced relative to untreated control, normalized to CFU/mL” value in the experiment with A. baumannii cells is “approximately 2 fold”.
In the case of `Cc1cc(NS(=O)(=O)c2ccc(N)cc2)no1` [4-amino-N—(S-methylisoxazol-3-yl)benzenesulfonamide], at BfrB, the “fragment binding to BfrB” value is reported as “bind at the Bfd-binding site”.
`CCn1cc(C(=O)O)c(=O)c2cc(F)c(N3CCNCC3)cc21` [norfloxacin]: in the experiment with P. aeruginosa [2], the “reported MIC” value is 0.9 µg/mL.
With `CS(=O)(=O)Nc1ccc(C#N)cc1` [N-(4-cyanophenyl)methanesulfonamide], the “fragment binding to BfrB” value at BfrB is listed as “bind at the Bfd-binding site”.
As for `COc1cc(O)ccc1CCCNc1cccc2c1C(=O)NC2=O` [Analog 15], the midpoint of inhibition in the experiment with P. aeruginosa [1] (Pseudomonas aeruginosa), the IC50, lay at 227 µM.
With `CC(C)(O/N=C(\C(=O)N[C@@H]1C(=O)N2C(C(=O)[O-])=C(C[n+]3ccccc3)CS[C@H]12)c1csc(N)n1)C(=O)O` [ceftazidime, reference compound], the “enhancement of antibacterial activity in combination with the small molecule inhibitors of the BfrB-Bfd interaction” value in the experiment with P. aeruginosa PAO1 was “no enhancement”.
Consider `O=C1NC(=O)c2c(NCc3ccc(Br)cc3O)cccc21` [JAG-005-030, 4-((4-Bromo-2-hydroxybenzyl)amino)isoindoline-1,3-dione], for which 48 µM corresponded to half-maximal inhibition in the experiment on A. baumannii [6] (Acinetobacter baumannii) (IC50). The same compound returned a minimal inhibitory concentration (MIC) with A. baumannii [5] of 80 to 128 µM (≈ 27.8 to 44.4 µg/mL).
In the case of `NC[C@H]1O[C@H](O[C@H]2[C@H](O)[C@@H](O[C@H]3O[C@H](CO)[C@@H](O)[C@H](N)[C@H]3O)[C@H](N)C[C@@H]2N)[C@H](N)C[C@@H]1O` [tobramycin, reference compound], in the experiment with P. aeruginosa PAO1, the “enhancement of antibacterial activity in combination with the small molecule inhibitors of the BfrB-Bfd interaction” value is on record as “no enhancement”.
Consider “4-((3-(4-Chloro-2-hydroxyphenyl)propyl)amino)isoindoline-1,3-dione [KM-5-66]”, for which the IC50 with P. aeruginosa [1] was 48 µM; in the experiment with A. baumannii [6], less than 32 µM. In the experiment with A. baumannii [5], the “A. baumannii MIC” value lay within 80 to 128 µM.
Compound `O=C1NC(=O)c2c(NCCCc3ccc(O)cc3)cccc21` [Analog 13] showed an IC50 in the experiment on P. aeruginosa [1] (Pseudomonas aeruginosa) of 201 µM.
